What was measured:
[1] = Solubility (statement); type: physicochemical
[2] = test system: L929 mammalian fibroblasts; assay: MEM toxicity test (USP standard elution cytotoxicity, trypan blue); type: cell-based; design: key to toxicity, MEM level / MEM Result: 0: No cell lysis - Discrete intracytoplasmic granules; 1: Not more than 20% of cells round and loosely attached - occasional lysed cells present; 2: Not more than 50% of cells round - extensive cell lysis and empty areas between cells; 3: Not more than 70% of the cell layers contain rounded cells and/or lysed; 4: Nearly complete destruction of the cell layer
Source text: In testing the toxicity of compounds of the compositions disclosed in solution, an MEM test procedure is used. The MEM (Minimum Essential Medium) test procedure is employed to evaluate cytoxicity using standard USP (The United States Pharmacopeial Convention) elution assays. A description of the test procedure is provided herein.
The assay provides a means of evaluating extracts of polymeric materials under direct contact conditions. This method is appropriate for high-density materials and for dose-response evaluations.
Media Preparation: 1X MEM media is prepared by mixing 100 mL Eagle's MEM (with Earl's Salts and Sodium Bicarbonate, without L-glutamine), with 10mL serum, 1 mL-glutamine solution, and 0.5 mL antibiotic solution (L-glutamine and antibiotic solutions are purchased at correct concentrations and stored frozen at -20 °C±2). Eagle's
Before use, a 4 ml aliquot of 10X trypsin is diluted 1:9 with 36 ml of Dulbecco's Phosphate Buffered Saline (PBS) to yield a 0.25% solution. Dulbecco's Saline is available from Mediatech Cellgro. Sterile 35 mm diameter petri dishes or 6 well tissue culture plates are used. Sterile serological pipets are employed in the procedure. Sterile absorbent material (e.g. Kay-Drys or similar material) is used. L929 mammalian fibroblasts (ATCC cell line CCL1, NCTC clone 929) are employed.
Overview of Method: Cell cultures are grown to a near confluent monolayer in 6 well plates (the wells are 35mm). After the test, material is extracted under various conditions (i.e. extracting medium, time, temperature) so as to allow evaluation of extract toxicity in accordance with USP procedures. These procedures define methods to be used to extract materials for in vivo or in vitro toxicity evaluations in accordance with United States Pharmacopoeia (USP). The Sodium Chloride Injection extract is diluted with serum-supplemented cell culture medium at 25% extract concentration. Each culture is examined microscopically after 48 hours using trypan blue for the presence of morphological changes, reduction in cell density or cell lysis induced by the test material.
Cell Layer Preparation: The next step is to tryptanize cells. Next, one determines cell density using standard methods to define standard cell biology methods to be used to determine and adjust the concentration of a cell suspension, i.e. cell density. Then, an adjustment is made to yield a standard cell suspension with a density of 250,000 to 350,000 cell/mL in serum supplemented MEM for L929 cells. Seed cells are placed into 6 well plates by pipetting 2 ml of the standard cell suspension into each well. […]
Exposure to Test Extracts: Exposure to test extracts is determined examining a representative prepared cell culture plate using the microscope to observe the cell monolayer for correct confluency. […]

[3] = Stability of magnesium perphthalate (statement); type: physicochemical

O.O.O.O.O.O.O=C([O-])c1ccccc1C(=O)O[O-].[Mg+2] [magnesium perphthalate, magnesium monoperoxyphthalate hexahydrate]
solubility [1]: freely soluble | toxicity, MEM Test Result level ([2]; concentrations below 0.5%, generally): 1 (Not more than 20% of cells round and loosely attached - occasional lysed cells present) | toxicity, MEM level ([2]; concentrations of 0.5% and above, with and without saline): 4 | toxicity ([2]; concentrations of about 0.25% and below in a chloride or other halide-containing solution): not toxic | MEM Result ([2]; some test results at below 0.5% magnesium perphthalate): 0 | stability ([3]; in aqueous solution): not stable | stability ([3]; in solid form): stable
